According to article PMC9658561, “[^99mTc]Tc-PSMA-T4—Novel SPECT Tracer for Metastatic PCa: From Bench to Clinic” (Molecules, 2022):
Like-named read-outs stand apart in the source and are kept apart here.

Columns and labels:
PSMA [1] = biological target: T1, PSMA (Homo sapiens, UniProt Q04609); assay: Competitive binding on LNCaP cell membranes with [131I]I-MIP1095 as competitive radioligand; conditions: [131I]I-MIP1095 radioligand, 2 h at 37 °C
T1 construct: host or cells: LNCaP cell membranes
Method: Cells from prostate cancer carcinomas: LNCaP and PC3, were isolated like previously described. The cells were harvested using 1 mL/flask of Trypsin-EDTA solution and centrifuged (1500 rpm for 15 min (LNCaP) and 1300 rpm for 6 min (PC3)). Received cell sediment was resuspended in 9.7 mM NaHCO3 containing 0.3 mM NaH2PO4 and incubated for 30 min at 4 °C. The solution was dispensed on 1.5 mL Eppendorf and centrifuged (13,500 rpm for 30 min). The supernatant was removed, the pellet was resuspended in 50 mM Tris-HCl Buffer (pH 7.4) and homogenized using a syringe with a thin needle. The solution was centrifuged (13,500 rpm for 30 min), and the final pellet was suspended in 50 mM Tris-HCl buffer (pH 7.4) and transferred to −70 °C.
The LNCaP cell membranes were distributed (in four replicates) in the constant amount on special MultiScreen™ 96 well assay plates. 100 µL of un-supplemented RPMI 1640 medium and 50 µL of increasing concentration of the unlabeled PSMA inhibitors was added to each well. As a control, 50 µL of PBS in 100 µL of media was used. After 15 min incubation at 37 °C, 50 µL of [^131I]I-MIP-1095 was added. Plates were incubated for 2 h at 37 °C. After an appropriate time, the supernatant solution was filtered under vacuum, and the membranes were washed twice with PBS solution. Filters and membranes were extruded to the tubes using MultiScreen Multiple Punch. The radioactivity of the filters was measured using a Wallac Wizard 1470 γ counter. The IC50 was evaluated and determined using GraphPad Prism 9.4 statistic program. As a control, PSMA-11 was used.

PSMA [2] = biological target: PSMA; parameters: method as in PMID 24983957; conditions: cited from earlier work
PSMA [3] = system: PSMA; parameters: method as in PMID 28450562; conditions: affinity for PSMA ref 53; cited from earlier work

T1 sequence (Q04609 whole entry): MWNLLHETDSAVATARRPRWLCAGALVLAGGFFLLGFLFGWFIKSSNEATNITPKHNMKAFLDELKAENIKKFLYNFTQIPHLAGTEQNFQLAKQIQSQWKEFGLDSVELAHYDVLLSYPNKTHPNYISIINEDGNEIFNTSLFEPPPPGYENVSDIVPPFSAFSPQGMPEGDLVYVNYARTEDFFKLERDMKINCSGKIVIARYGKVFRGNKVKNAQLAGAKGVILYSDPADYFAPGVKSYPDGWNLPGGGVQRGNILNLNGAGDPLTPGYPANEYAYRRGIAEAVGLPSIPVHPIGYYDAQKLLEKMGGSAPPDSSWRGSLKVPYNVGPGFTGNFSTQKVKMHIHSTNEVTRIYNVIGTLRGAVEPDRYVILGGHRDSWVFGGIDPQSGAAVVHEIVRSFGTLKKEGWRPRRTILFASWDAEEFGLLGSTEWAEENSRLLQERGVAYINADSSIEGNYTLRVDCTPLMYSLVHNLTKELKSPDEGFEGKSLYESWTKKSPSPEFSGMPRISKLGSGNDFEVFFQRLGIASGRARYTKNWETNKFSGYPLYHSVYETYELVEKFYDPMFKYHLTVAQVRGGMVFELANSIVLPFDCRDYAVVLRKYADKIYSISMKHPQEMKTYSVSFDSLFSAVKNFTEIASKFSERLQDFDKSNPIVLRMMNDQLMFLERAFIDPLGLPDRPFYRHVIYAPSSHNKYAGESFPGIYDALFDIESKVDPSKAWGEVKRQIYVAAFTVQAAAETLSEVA

SMILES	IC50 (PSMA [1]) [nM]	other results
NNc1ccc(C(=O)NC[C@H]2CC[C@H](C(=O)N[C@@H](Cc3c[nH]c4ccccc34)C(=O)NCCCC[C@H](NC(=O)N[C@@H](CCC(=O)O)C(=O)O)C(=O)O)CC2)cn1 [PSMA-T4, (S)-2-{3-[(S)-5-[(S)-3-(1H-Indol-3-yl)-2-({(1r,4r)-4-[(6-hydrazino-nicotinoylamino)methyl]cyclohexyl}carbonylamino)propionylamino]-1-carboxypentyl]ureido}glutaric acid]	79.5	–
NNc1ccc(C(=O)NCCCCCC(=O)N[C@@H](Cc2c[nH]c3ccccc23)C(=O)NCCCC[C@H](NC(=O)N[C@@H](CCC(=O)O)C(=O)O)C(=O)O)cn1 [PSMA-T3, Glu-CO-Lys-LTrp-6Ahx-HYNIC]	74.6	–
O.O=C([O-])CN(CCN(CC(=O)[O-])Cc1cc(CCC(=O)O)ccc1O)Cc1cc(CCC(=O)NCCCCCC(=O)NCCCC[C@H](NC(=O)N[C@@H](CCC(=O)O)C(=O)O)C(=O)O)ccc1[O-].[Ga+3] [[^68Ga]Ga-PSMA-11, Glu-NH-CO-Lys-(ahx)-HBED-CC-[^68Ga]Ga]	–	Kd (PSMA [2]; literature value ref 15): 11.4 ± 7.1 nM
O=C(O)CCc1ccc(O)c(CN(CCN(CC(=O)O)Cc2cc(CCC(=O)NCCCCCC(=O)NCCCC[C@H](NC(=O)N[C@@H](CCC(=O)O)C(=O)O)C(=O)O)ccc2O)CC(=O)O)c1 [PSMA-11]	715	Kd (PSMA [2]): 11.4 nM
O=C(O)CC[C@H](NC(=O)N[C@@H](CCCCNC(=O)Nc1ccc([131I])cc1)C(=O)O)C(=O)O [[^131I]I-MIP-1095, (2S)-2-({[(1S)-1-carboxy-5-({[4-[¹³¹I]iodophenyl]carbamoyl}amino)pentyl]carbamoyl}amino)pentanedioic acid]	–	IC50 (PSMA [3]): 0.3 nM
